Source: patent EP1124440B1, “USE OF […] FOR FOODSTUFF AND COSMETIC MATERIAL” (Aquacal Limited, priority 1998, dated 2000)
Read-outs that look alike come from different tables or passages of the source.

Columns and labels:
[1] = biscuits cooked for exactly eleven minutes
Description: Four batches of biscuits were made using the following recipe:
(§1) The biscuits were cooked for exactly eleven minutes and then analysed.
(§2) The following parameters were examined: friability, water activity (Aw) and colour.

[2] = ice-cream; B = Yellow Colour
Protocol: 3. Colour was measured using a Minolta colour meter and the results were expressed using LAB values: L = Lightness A = Red Colour B = Yellow Colour
4. A further batch of ice-cream was made to assess if calcium addition effected the over-run properties of the ice-cream.

[3] = water activity; biscuits cooked for exactly eleven minutes
Description: as §1, §2

[4] = biscuits
Protocol: Colour was measured using LAB values. L. Brightness A. Red B. Yellow
The LAB values of the biscuits were measured using a Minolta colour meter.

## O=C([O-])[O-].[Ca+2] [Calcium Carbonate]
[1]
  Friability: significantly reduced
[2]
  B value: significant difference
[3]
  Aw: significantly increased
[4]; A = Red
  A value: significantly reduced
[4]; B = Yellow
  B value: did not effect this value
[4]; L = Brightness
  L value: 72.87
